# Measurements as given in US20140377219A1, “HIV INHIBITORS” (New york Blood Center, Inc., priority 2011, published 2014).
# Where two headings read alike, the source gives them in different places.
# Tests used:
# [1] = molecular target: T1, HIV-1IIIB gp120 and sCD4 (Human immunodeficiency virus type 1 group M subtype B, UniProt P03375); experiment: biochemical; type: binding; details: read-out: IC50 (μM ± SD), interaction HIV-1IIIB gp120 and sCD4
# T1 construct: recombinant gp120 from HIV-1IIIB and HIV-1MN
# Experimental: (§1) The compounds were incubated at graded concentrations with sCD4 (0.25 μg/ml) in the wells of polystyrene plates containing recombinant gp120, which was captured by coating the plates with a sheep anti-gp120 antibody D7324.
# [2] = molecular target: T2, HIV-1MN gp120 and sCD4 (Human immunodeficiency virus type 1 group M subtype B, UniProt P05877); experiment: biochemical; type: binding; details: read-out: IC50 (μM ± SD), interaction HIV-1MN gp120 and sCD4
# T2 construct: recombinant gp120 from HIV-1IIIB and HIV-1MN
# Experimental: as §1
# [3] = molecular target: gp120 (Human immunodeficiency virus type 1 group M subtype B, UniProt P03375); experiment: biochemical; type: binding, HIV-1
# [4] = molecular target: CD4 (Homo sapiens, UniProt P01730); experiment: Surface plasmon resonance (SPR), ligand CD4; type: binding
# [5] = Cytotoxicity in MT-2 cells (XTT); type: cell-based; details: human; MT-2 cells, XTT, four days
# Experimental: (§2) Cytotoxicity of small molecules in MT-2 cells and PBMC was measured by the XTT ((sodium 3′-(1-(phenylamino)-carbonyl)-3,4-tetrazolium-bis(4-methoxy-6-nitro)benzene-sulfonic acid hydrate)) method. Briefly, for MT-2 cells, 100 μl of a small molecule at graded concentrations was added to an equal volume of cells (10^5 cells/ml) in 96-well plates followed by incubation at 37° C. for four days, which ran parallel with the neutralization assay in MT-2 (except medium was added instead of virus). In the case of PBMC, 5×10^5 cells/ml was used and the cytotoxicity was measured after seven days. […] The percentage cytotoxicity and the CC50 values were calculated as described above.
# [6] = Cytotoxicity in PBMC (XTT); type: cell-based; details: human; PBMC, XTT, seven days
# Experimental: as §2
# [7] = system: PBMC; experiment: Cytotoxicity in PBMC (XTT); type: cell-based; details: for % toxicity at that dose (number in parenthesis), PBMC: at the dose given as CC50 bound; for CC50: PBMC, XTT, seven days, read-out: PBMC CC50
# Experimental: as §2
# [8] = system: laboratory-adapted HIV-1 IIIB strain; experiment: microbe, parasite or virus in culture; details: Human immunodeficiency virus 1, IIIB
# [9] = system: HIV-1 BaL; experiment: Neutralization assay in PBMC (p24 ELISA)
# Experimental: (§4) PBMCs were isolated from the blood of healthy donors at the New York Blood Center by standard density-gradient centrifugation using Histopaque-1077 (Sigma-Aldrich). The cells were cultured at 37° C. for 2 h. Non-adherent cells were collected and resuspended at 5×10^6 cells/ml in RPMI-1640 medium containing 10% (v/v) fetal bovine serum, 5 μg/ml of phytohemagglutinin, and 100 U/ml of IL-2 (Sigma-Aldrich), followed by incubation at 37° C. for three days.
# [10] = system: HIV-1 89.6; experiment: Neutralization assay in PBMC (p24 ELISA); details: read-out: IC50 (μM) ± S.D., inhibitory activity on infection
# Experimental: (§5) The inhibitory activity of small molecules on infection by primary HIV-1 isolates was determined. PBMCs were isolated from the blood of healthy donors at the New York Blood Center by standard density-gradient centrifugation using Histopaque-1077 (Sigma-Aldrich). The cells were cultured at 37° C. for 2 h. Non-adherent cells were collected and resuspended at 5×10^6 cells/ml in RPMI-1640 medium containing 10% (v/v) fetal bovine serum, 5 μg/ml of phytohemagglutinin, and 100 U/ml of IL-2 (Sigma-Aldrich), followed by incubation at 37° C. for three days.
# [11] = system: HIV-1 SF162; experiment: Neutralization assay in PBMC (p24 ELISA); details: read-out: IC50 (μM) ± S.D., inhibitory activity on infection
# Experimental: as §4
# [12] = system: primary HIV-1 isolate 93BR029 (clade F, R5); experiment: Neutralization assay in PBMC (p24 ELISA); details: read-out: IC50 (μM) ± S.D., inhibitory activity on infection
# Experimental: as §4
# [13] = system: primary HIV-1 isolate RU570 (clade G, R5); experiment: Neutralization assay in PBMC (p24 ELISA); details: read-out: IC50 (μM) ± S.D., inhibitory activity on infection
# Experimental: as §4
# [14] = system: primary HIV-1 isolate 92UG031 (subtype A, R5); experiment: Neutralization assay in PBMC (p24 ELISA); details: read-out: IC50 (μM) ± S.D., inhibitory activity on infection
# Experimental: as §5
# [15] = system: primary HIV-1 isolate 92US657 (subtype B, R5); experiment: Neutralization assay in PBMC (p24 ELISA); details: read-out: IC50 (μM) ± S.D., inhibitory activity on infection
# Experimental: as §4
# [16] = system: primary HIV-1 isolate 93IN101 (subtype C, R5); experiment: Neutralization assay in PBMC (p24 ELISA); details: read-out: IC50 (μM) ± S.D., inhibitory activity on infection
# Experimental: as §5
# [17] = system: primary HIV-1 isolate 93TH060 (subtype E, R5); experiment: Neutralization assay in PBMC (p24 ELISA); details: read-out: IC50 (μM) ± S.D., inhibitory activity on infection
# Experimental: as §5
# [18] = system: primary HIV-1 isolate BCF02 (Group 0, R5); experiment: Neutralization assay in PBMC (p24 ELISA); details: read-out: IC50 (μM) ± S.D., inhibitory activity on infection
# Experimental: as §5
# [19] = system: HIV-1 MN; experiment: Multi-cycle neutralization assay in MT-2 cells
# Experimental: In brief, 1×10^4 MT-2 cells were infected with HIV-1 at 100 TCID50 (50% tissue culture infective dose) (0.01MOI) in 200 μl medium in the presence or absence of small molecules at graded concentrations and incubated overnight. The culture supernatants were then removed and replaced with fresh media. On the fourth day post-infection, 100 μl of culture supernatants were collected from each well, mixed with equal volume of 5% Triton X-100 and tested for p24 antigen by sandwich-ELISA. The percent inhibition of p24 production and IC50 values were calculated by the GraphPad Prism software (GraphPad Software Inc.).
# [20] = system: AZT-resistant (AZT-R) HIV-1 strain; experiment: Multi-cycle neutralization assay in MT-2 cells
# [21] = system: HIV-1 SF2; experiment: Multi-cycle neutralization assay in MT-2 cells
# [22] = system: HIV-1 RF; experiment: Multi-cycle neutralization assay in MT-2 cells
# [23] = system: HIV-1 RF/L-323-12-3 (protease resistant isolate); experiment: Multi-cycle neutralization assay in MT-2 cells
# [24] = system: TZM-bl cells; experiment: Cytotoxicity in TZM-bl cells (XTT); type: cell-based
# Experimental: (§3) The cytotoxicity of small molecules in TZM-bl cells was measured by a colorimetric method using XTT (sodium 3′-(1-(phenylamino)-carbonyl)-3,4-tetrazolium-bis(4-methoxy-6-nitro)benzenesulfonic acid hydrate), a light yellowish tetrazolium dye. Briefly, 100 μl of a compound at graded concentrations was added to equal volume of cells (10^5/ml) in wells of 96-well plates followed by incubation at 37° C. for 3 days and addition of XTT (PolySciences, Inc., Warrington, Pa.).
# [25] = system: MT-2 cells; experiment: Cytotoxicity in MT-2 cells (XTT); type: cell-based; details: for CC50: MT-2 cells, XTT, four days, read-out: MT-2 Cells CC50
# Experimental: as §2
# [26] = system: pNL4-3 gp41 (36G) V38E, N42S (fusion resistant isolate); type: cell-based, HIV-1; details: subtype B, MT-2, X4, fusion resistant isolate, read-out: IC50 (μM) ± S.D., inhibitory activity on infection
# [27] = system: laboratory-adapted HIV-1 IIIB strain
# [28] = Cytotoxicity in TZM-bl cells (XTT); type: cell-based; details: human; TZM-bl cells, XTT, 3 days; read-out: TZM-bl cells CC50 (μM ± SD)
# Experimental: as §3
# [29] = system: CD4-dependent virus (ADA); type: cell-based; details: ADA in Cf2Th-CD4+-CCR5+ target cells, FIG. 5; read-out: IC50, inhibition of the CD4-dependent virus
# [30] = captured ELISA, sCD4 0.25 μg/ml
# [31] = Human immunodeficiency virus 1, PBMC
# [32] = Human immunodeficiency virus 1, MT2, read-out: IC50 (μM) ± S.D., inhibitory activity on infection
# [33] = at the dose given as CC50 bound
# [34] = MT2, read-out: MT-2 Cells IC50 (μM ± SD)
smiles,measurement,setting,value
CN1C(=O)[C@@H](c2cc(Cl)c(O)c(Cl)c2)NC(=O)[C@@H]2NC(=O)[C@@H](c3cc(Cl)c(O)c(Cl)c3)NC(=O)[C@H](NC(=O)C(=O)c3cc(Cl)c(O)c(Cl)c3)Cc3c[nH]c4c(cccc34)-c3cc2cc(c3O)Oc2ccc(cc2)C[C@H]1C(=O)N[C@@H](C(=O)O)c1ccc(O)cc1 [Chloropeptin],IC50,[1]; [30],0.31 µM
same,IC50,[2]; [30],0.31 ± 0.2 µM
same,Kd,"[3]; SPR, ligand gp120",2.5 µM
same,Rmax (RU),"[3]; SPR, ligand gp120",1160 RU
same,koff,"[3]; SPR, ligand gp120",0.011 s⁻¹
same,Kd,[4],5.4 µM
same,Rmax (RU),"[4]; SPR, ligand CD4",76.8 RU
same,koff,[4]; read-out: Koff (s − 1),0.018 s⁻¹
"Cc1nc(C(NC(=O)C(=O)Nc2ccc(Cl)c(F)c2)C2CCCCN2)sc1CO (stereo not drawn) [Compound 27, N^1-(4-chloro-3-fluorophenyl)-N^2-((5-(hydroxymethyl)-4-methylthiazol-2-yl)(piperidin-2-yl)methyl)oxalamide.2HCl]",CC50 at 4 days,[5],~83 µM
same,CC50 at 7 days,[6],> 104 µM
same,"% toxicity at that dose (number in parenthesis), PBMC",[7],(40%)
same,IC50,"[8]; MT2, read-out: IC50 (μM) ± S.D., inhibitory activity on infection",4.1 ± 0.7 µM
same,IC50,"[9]; Human immunodeficiency virus 1, BAL, read-out: IC50 (μM) ± S.D., inhibitory activity on infection",43.8 ± 5 µM
same,IC50,[10]; [31],3.2 ± 0.7 µM
same,IC50,[11]; [31],16.3 ± 1.7 µM
same,IC50,[12]; [31],9.9 ± 0.8 µM
same,IC50,[13]; [31],15.3 ± 1.7 µM
same,IC50,[14]; [31],10.7 ± 0.3 µM
same,IC50,[15]; [31],12.5 ± 2.4 µM
same,IC50,[16]; [31],~84 µM
same,IC50,[17]; [31],11 ± 0.5 µM
same,IC50,[18]; [31],~84 µM
same,IC50,[19]; [32],18.5 ± 1.8 µM
same,IC50,[20]; [32],6.5 ± 0.9 µM
same,IC50,[21]; [32],35.7 ± 2.6 µM
same,IC50,[22]; [32],13.8 ± 2.3 µM
same,IC50,[23]; [32],6.2 ± 0.9 µM
"Cc1ccc(NC(=O)C(=O)NC(c2nc(C)c(CCO)s2)C2CCCCN2)cc1F.Cl (stereo not drawn) [Compound 38, N^1-(3-fluoro-4-methylphenyl)-N^2-((5-(2-hydroxyethyl)-4-methylthiazol-2-yl)(piperidin-2-yl)methyl)oxalamide.HCl]",CC50,"[24]; TZM-bl cells, XTT, 3 days, read-out: TZM-bl cells CC50 (μM ± SD)",> 85 µM
same,"% toxicity at that dose (number in parenthesis), TZM-bl cells",[24]; [33],40%
same,CC50,[25]; listed as NBD-110017,> 87 µM
same,CC50,[25],~85 µM
same,"% toxicity at that dose (number in parenthesis), MT-2 cells",[25]; [33],30%
same,CC50,[7],> 64 µM
same,"% toxicity at that dose (number in parenthesis), PBMC",[7],0%
same,IC50,[26],8.4 ± 0.4 µM
same,IC50,"[27]; read-out: IC50 (μM) ± S.D., inhibitory activity on infection, IIIB, subtype B, MT-2, X4, laboratory strain",5.3 ± 1.7 µM
same,IC50,"[27]; read-out: MT-2 Cells IC50 (μM ± SD), multi-cycle assay, MT-2 cells, HIV-1 IIIB",3.7 ± 0.7 µM
same,IC50,"[9]; read-out: IC50 (μM) ± S.D., inhibitory activity on infection, BaL, subtype B, R5, laboratory strain",30.3 ± 1.4 µM
same,IC50,"[10]; 89.6, subtype B, PBMC, R5X4, laboratory strain",14.7 ± 1.1 µM
same,IC50,"[11]; SF162, subtype B, PBMC, R5, laboratory strain",16.5 ± 4 µM
same,IC50,"[12]; 93BR029, subtype F, PBMC, R5, primary isolate",8.6 ± 0.4 µM
same,IC50,"[13]; RU570, subtype G, PBMC, R5, primary isolate",15.8 ± 0.9 µM
same,IC50,"[14]; 92UG031, subtype A, PBMC, R5, primary isolate",10.1 ± 1.8 µM
same,IC50,"[15]; 92US657, subtype B, PBMC, R5, primary isolate",6.8 ± 0.7 µM
same,IC50,"[16]; 93IN101, subtype C, PBMC, R5, primary isolate",> 87 µM
same,IC50,"[17]; 93TH060, subtype E, PBMC, R5, primary isolate",14.7 ± 0.7 µM
same,IC50,"[18]; BCF02, Group 0, PBMC, R5, primary isolate",~87 µM
same,IC50,"[19]; read-out: IC50 (μM) ± S.D., inhibitory activity on infection, MN, subtype B, MT-2, X4, laboratory strain",14.9 ± 2.6 µM
same,IC50,"[20]; read-out: IC50 (μM) ± S.D., inhibitory activity on infection, AZT-R, subtype B, MT-2, X4, RT-resistant isolate",14.5 ± 1.5 µM
same,IC50,"[21]; read-out: IC50 (μM) ± S.D., inhibitory activity on infection, SF2, subtype B, MT-2, R5X4, laboratory strain",27.6 ± 1.7 µM
same,IC50,"[22]; read-out: IC50 (μM) ± S.D., inhibitory activity on infection, RF, subtype B, MT-2, R5X4, laboratory strain",12.4 ± 1.4 µM
same,IC50,"[23]; read-out: IC50 (μM) ± S.D., inhibitory activity on infection, HIV-1 RF/L-323-12-3, subtype B, MT-2, X4, protease resistant isolate",10.2 ± 0.4 µM
"O=C(CCC(=O)Nc1ccc(Cl)cc1)NCCCN1CCC(O)CC1 [Compound 44, N^1-(4-chlorophenyl)-N^4-(3-(4-hydroxypiperidin-1-yl)propyl)succinamide]",CC50 at 3 days,[28],~109 µM
same,CC50 at 4 days,[5],> 109 µM
same,melting point,,154 to 155 °C
same,IC50,[8]; [34],> 109 µM
"CC1CCCN(c2ccccc2CNC(=O)CCC(=O)Nc2ccc(Cl)cc2)C1 (stereo not drawn) [Compound 45, N^1-(4-chlorophenyl)-N^4-(2-(3-methylpiperidin-1-yl)benzyl)succinamide]",CC50 at 3 days,[28],> 97 µM
same,CC50 at 4 days,[5],> 97 µM
same,melting point,,162 to 163 °C
same,IC50,[8]; [34],> 97 µM
CC1(C)CC(NC(=O)C(=O)Nc2ccc(Br)cc2)CC(C)(C)N1 [NBD-557],CC50,[25],223 µM
same,CC50,[7],603 µM
same,IC50,[1],3.08 ± 0.6 µM
same,IC50,[2],4.21 ± 1.1 µM
same,IC50,[29],13.4 µM
same,Kd,[3],42 µM
same,Koff (s − 1),[3],4.7 × 10−2 s − 1
same,Rmax (RU),[3],1.48 RU
same,binding to CD4,[4]; SPR,not to CD4
